From US10981932B2, “Macrocyclic indole derivatives” (Bayer Aktiengesellschaft, priority 2016, dated 2021)
Counter-ions that a name gives are not always drawn. Like-named read-outs stand apart in the source and are kept apart here.

Experiments:
SUDHL10 [1] = experiment: Induction of cytotoxicity (CellTiter-Glo, 5 h), SUDHL10
SUDHL10 [2] = experiment: Induction of caspase-3/7 activity (Caspase-Glo 3/7), SUDHL10; format: cell-based; conditions: caspase-3/7 induction, SUDHL10 cells, 3 h treatment, median
Method in brief: (§1)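 DLBCL cells treated with compounds for 3 h at 37 °C, then caspase-3/7 activity read by Caspase-Glo 3/7 luminescence. Medium-only background subtracted; EC50 fitted with C0 fixed at 1 and top set to the reference compound's maximal induction.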

A2780 = experiment: Anti-proliferative effect (CellTiter-Glo, 72 h), A2780; format: cell-based; conditions: A2780 cells, median, read-out: IC50 antiproliferation assay A2780 [M] (median)
Method in brief: (§2)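 Cells were treated with compounds for 72 h at 37 °C in a humidified incubator, and viability was measured by CellTiter-Glo luminescence. A parallel day 0 plate, read the same way, gave the time zero baseline.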

SUDHL5 [3] = experiment: Anti-proliferative effect (CellTiter-Glo, 72 h), SUDHL5; format: cell-based; conditions: SUDHL5 cells, antiproliferation, 72 h incubation, median, read-out: Antiproli SUDHL5 [M] (median)
Method in brief: as §2

MV-4-11 = experiment: Anti-proliferative effect (CellTiter-Glo, 72 h), MV-4-11; format: cell-based; conditions: Homo sapiens, MV4-11, 72 h, MV-4-11 cells, median, read-out: IC50 antiproliferation assay MV-4-11 [M] (median)
Method in brief: as §2

SUDHL10 [4] = experiment: Anti-proliferative effect (CellTiter-Glo, 72 h), SUDHL10; format: cell-based; conditions: SUDHL10 cells, antiproliferation, 72 h incubation, median, read-out: Antiproli SUDHL10 [M] (median)
Method in brief: as §2

SUDHL5 [5] = experiment: Induction of caspase-3/7 activity (Caspase-Glo 3/7), SUDHL5; format: cell-based; conditions: caspase-3/7 induction, SUDHL5 cells, 3 h treatment, median
Method in brief: as §1

SUDHL5 [6] = experiment: Induction of cytotoxicity (CellTiter-Glo, 5 h), SUDHL5
MCL-1 = MCL-1 (Homo sapiens, UniProt Q07820); experiment: Protein-protein interaction assay MCL-1/Noxa BH3 peptide (MCL-1 assay), TR-FRET; format: binding; conditions: MBP-MCL-1 / Noxa BH3-derived peptide, median
Method in brief: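 TR-FRET, 665/622 nm emission ratio (excitation 330–350 nm), measured MCL-1/Noxa complex formation. 1 nM MBP-MCL-1, 50 mM Tris/HCl pH 7, 0.1% BGG, 2 mM DTT. Incubation 1 h at 22 °C, then overnight at 4 °C. IC50 by 4-parameter regression, normalized to DMSO (0%) and no-MCL-1 (100%) controls.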

[7] = read-out: Cytotox SUDHL10 [M] (median), SUDHL10 cells, cytotoxicity induction, CellTiter-Glo, 5 h incubation, median
[8] = read-out: Cytotox SUDHL5 [M] (median), SUDHL5 cells, cytotoxicity induction, CellTiter-Glo, 5 h incubation, median
[9] = Homo sapiens, SU-DHL10, 5 h, read-out: Cytotox SUDHL10 [M] (median), SUDHL10 cells, cytotoxicity induction, CellTiter-Glo, 5 h incubation, median

MCL-1, sequence (Q07820 whole entry): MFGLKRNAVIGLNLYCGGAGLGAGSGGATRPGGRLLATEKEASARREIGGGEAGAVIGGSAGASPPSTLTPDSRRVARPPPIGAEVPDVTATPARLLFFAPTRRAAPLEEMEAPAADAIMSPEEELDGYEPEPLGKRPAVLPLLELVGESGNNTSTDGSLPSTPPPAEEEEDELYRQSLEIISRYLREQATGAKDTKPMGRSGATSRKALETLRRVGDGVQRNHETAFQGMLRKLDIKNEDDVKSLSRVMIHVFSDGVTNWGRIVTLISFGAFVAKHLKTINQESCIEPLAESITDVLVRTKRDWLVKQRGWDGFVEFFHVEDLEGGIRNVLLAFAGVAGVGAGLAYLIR

| Compound | EC50 (SUDHL10 [2]) [µM] | IC50 (A2780) [M] | IC50 (A2780; Homo sapiens, A2780, 72 h) [M] | IC50 (SUDHL5 [3]) [M] | IC50 (MV-4-11) [M] | IC50 (SUDHL10 [4]) [M] | EC50 (SUDHL5 [5]) [µM] | IC50 (MCL-1) [µM] | EC50 (SUDHL10 [2]; Homo sapiens, SU-DHL10, 3 h) [µM] | IC50 (SUDHL5 [3]; Homo sapiens, SU-DHL-5, 72 h) [M] | IC50 (SUDHL10 [4]; Homo sapiens, SU-DHL10, 72 h) [M] | EC50 (SUDHL5 [5]; Homo sapiens, SU-DHL-5, 3 h) [µM] | IC50 (SUDHL10 [1]; [7]) [M] | IC50 (SUDHL5 [6]; [8]) [M] | IC50 (SUDHL10 [1]; [9]) [M] | IC50 (SUDHL5 [6]; Homo sapiens, SU-DHL-5, 5 h, read-out: Cytotox SUDHL5 [M] (median), SUDHL5 cells, cytotoxicity induction, CellTiter-Glo, 5 h incubation, median) |
| --- | --- | --- | --- | --- | --- | --- | --- | --- | --- | --- | --- | --- | --- | --- | --- | --- |
| Cc1nn(C)c2c1-c1cccc3c(CCCOc4cccc5c4CCCC5)c(C(=O)O)n(c13)CCCCOC2 (single isomer, unassigned; enantiomer 1) [Example 007, 1,3-dimethyl-7-[3-(5,6,7,8-tetrahydronaphthalen-1-yloxy)propyl]-1,10,11,12,13,15-hexahydropyrazolo[4′,3′:9,10][1,6]oxazacycloundecino[8,7,6-hi]indole-8-carboxylic acid-N-ethylethanamine Salt (Enantiomer 1)] | 12 | 3.25e-05 | > 3.3e-05 | 5.16e-06 | 8.03e-06 | 3.1e-06 | 2.85 | 0.000987 |  |  |  |  | 6e-06 | 3.54e-06 |  |  |
| Cc1nn(CCN2CCOCC2)c2c1-c1cccc3c(CCCOc4cccc5ccccc45)c(C(=O)O)n(c13)CCCCOC2 (single isomer, unassigned; enantiomer 1) [Example 096, 3-methyl-1-[2-(morpholin-4-yl)ethyl]-7-[3-(naphthalen-1-yloxy)propyl]-1,10,11,1213,15-hexahydropyrazolo[4′,3′:9,10][1,6]oxazacycloundecino[8,7,6-hi]indole-8-carboxylic acid-N-ethylethanamine Salt (Enantiomer 1)] | 3.97 |  | 2.79e-05 | 2.32e-06 | 1.45e-06 |  | 1.34 | 0.00136 |  |  | 7.13e-06 |  | 3.7e-06 | 1.09e-06 |  |  |
| Cc1nn(CC(F)(F)F)c2c1-c1cccc3c(CCCOc4cccc5ccccc45)c(C(=O)O)n(c13)CCCCOC2 (single isomer, unassigned; enantiomer 1) [Example 110, 3-methyl-7-[3-(naphthalen-1-yloxy)propyl]-1-(2,2,2-trifluoroethyl)-1,10,11,12,13,15-hexahydropyrazolo[4′,3′:9,10][1,6]oxazacycloundecino[8,7,6-hi]indole-8-carboxylic acid-N-ethylethanamine Salt (Enantiomer 1)] |  |  | > 3.3e-05 | 1.24e-05 | 1.33e-05 | 1.72e-05 | 8.06 | 0.0124 | 26 |  |  |  |  | 6.54e-06 | 2.37e-05 |  |
| Cn1nc(CN2CCOCC2)c2c1COCC=CCn1c(C(=O)O)c(CCCOc3cccc4ccccc34)c3cccc-2c31 (single isomer, unassigned; enantiomer 1) [Example 133, (E/Z)-1-methyl-3-(morpholin-4-ylmethyl)-7-[3-(naphthalen-1-yloxy)propyl]-1,10,13,15-tetrahydropyrazolo[4′,3′:9,10][1,6]oxazacycloundecino[8,7,6-hi]indole-8-carboxylic acid-N-ethylethanamine Salt (Enantiomer 1)] |  |  | 1.51e-05 |  | 6.84e-06 | 4.25e-06 |  | 0.0186 | 32.8 | 1.62e-05 |  | 17.6 |  |  | 2.95e-05 | 1.84e-05 |
| Cn1nc(CN2CC(F)(F)C2)c2c1COCCCCn1c(C(=O)O)c(CCCOc3cccc4ccccc34)c3cccc-2c31 (single isomer, unassigned; enantiomer 1) [Example 181, 3-[(3,3-difluoroazetidin-1-yl)methyl]-1-methyl-7-[3-(naphthalen-1-yloxy)propyl]-1,10,11,12,13,15-hexahydropyrazolo[4′,3′:9,10][1,6]oxazacycloundecino[8,7,6-hi]indole-8-carboxylic acid-N-ethylethanamine Salt (Enantiomer 1)] | 16.1 |  | 2.46e-05 | 6.23e-06 | 1.8e-05 |  | 5.11 | 0.00777 |  |  | 8.23e-06 |  |  | 6.68e-06 | 1.67e-05 |  |

Continued, in another order:

| EC50 (SUDHL10 [2]) [µM] | IC50 (A2780) [M] | IC50 (A2780; Homo sapiens, A2780, 72 h) [M] | IC50 (SUDHL5 [3]) [M] | IC50 (MV-4-11) [M] | IC50 (SUDHL10 [4]) [M] | EC50 (SUDHL5 [5]) [µM] | IC50 (MCL-1) [µM] | EC50 (SUDHL10 [2]; Homo sapiens, SU-DHL10, 3 h) [µM] | IC50 (SUDHL5 [3]; Homo sapiens, SU-DHL-5, 72 h) [M] | IC50 (SUDHL10 [4]; Homo sapiens, SU-DHL10, 72 h) [M] | EC50 (SUDHL5 [5]; Homo sapiens, SU-DHL-5, 3 h) [µM] | Compound | IC50 (SUDHL10 [1]; [7]) [M] | IC50 (SUDHL5 [6]; [8]) [M] | IC50 (SUDHL10 [1]; [9]) [M] | IC50 (SUDHL5 [6]; Homo sapiens, SU-DHL-5, 5 h, read-out: Cytotox SUDHL5 [M] (median), SUDHL5 cells, cytotoxicity induction, CellTiter-Glo, 5 h incubation, median) |
| --- | --- | --- | --- | --- | --- | --- | --- | --- | --- | --- | --- | --- | --- | --- | --- | --- |
|  |  | > 3.3e-05 |  | 4.1e-06 |  | 6.63 | 0.00357 | 25.3 | 7.61e-06 | 1.1e-05 |  | Cc1nn(C)c2c1-c1cccc3c(CCCOc4cccc5ccccc45)c(C(=O)O)n(c13)CCCOC2 (single isomer, unassigned; enantiomer 1) [Example 044, 9,11-dimethyl-1-[3-(naphthalen-1-yloxy)propyl]-5,6,8,9-tetrahydro-4H-pyrazolo[4′,3′:8,9][1,5]oxazecino[7,6,5-h]indole-2-carboxylic acid-N-ethylethanamine Salt (Enantiomer 1)] |  | 6.01e-06 | 2.34e-05 |  |
| 2.9 |  | > 3.3e-05 | 1.34e-06 | 1.52e-06 | 1.2e-06 | 0.803 | 0.0016 |  |  |  |  | COCc1nn(C)c2c1-c1cccc3c(CCCOc4cccc5ccccc45)c(C(=O)O)n(c13)CCCCN(C)C2 (single isomer, unassigned; enantiomer 1) [Example 184, 3-(methoxymethyl)-1,14-dimethyl-7-[3-(naphthalen-1-yloxy)propyl]-10,11,12,13,14,15-hexahydro-1H-pyrazolo[3′,4′:8,9][1,6]diazacycloundecino[10,11,1-hi]indole-8-carboxylic acid-N-ethylethanamine Salt (Enantiomer 1)] | 2.94e-06 | 8.82e-07 |  |  |
| 7.16 |  | 2.55e-05 | 3.23e-06 | 2.58e-06 |  | 2.09 | 0.00273 |  |  | 4.64e-06 |  | Cc1c2c(nn1C)CCCCCCn1c(C(=O)O)c(CCCOc3cccc4ccccc34)c3cccc-2c31 (single isomer, unassigned; enantiomer 1) [Example 191, 2,3-dimethyl-7-[3-(1-naphthyloxy)propyl]-10,11,12,13,14,15-hexahydro-2H-pyrazolo[4′,3′:4,5]azacycloundecino[3,2,1-hi]indole-8-carboxylic acid-N-ethylethanamine Salt (Enantiomer 1)] | 5.01e-06 | 1.87e-06 |  |  |
| 2.85 |  | 1.53e-05 | 1.45e-06 | 4.83e-06 | 2.19e-06 | 1.39 | 0.00161 |  |  |  |  | CCCc1nn(C)c2c1-c1c(C)ccc3c(CCCOc4cccc5ccccc45)c(C(=O)O)n(c13)CCCN(C)C2 (single isomer, unassigned; enantiomer 1) [Example 196, 7,9,12-trimethyl-1-[3-(naphthalen-1-yloxy)propyl]-11-propyl-4,5,6,7,8,9-hexahydropyrazolo[3′,4′:7,8][1,5]diazecino[9,10,1-hi]indole-2-carboxylic acid-N-ethylethanamine Salt (Enantiomer 1)] | 2.92e-06 | 1.36e-06 |  |  |
